In patent US11377423B2, “Inhibitors of histone deacetylase” (The Broad Institute, Inc., priority 2012, dated 2022):

Experiments:
HDAC2 = HDAC2 (Homo sapiens (Human), UniProt Q92769); assay: Tm shift; type: binding
HDAC5 = HDAC5 (Homo sapiens (Human), UniProt Q9UQL6); assay: Caliper HDAC enzymatic endpoint assay, HDAC5; type: biochemical; details: Table 2C; read-out: HDAC5 IC50 after 0 hr preincubation
Description: (§1) The Caliper HDAC Assay Buffer (acronym HAB, 1 liter) was prepared as follows:
(§2) Substrate B was prepared as 2 mM in 100% DMSO. Its final concentration in the assay for HDACs 4, 5, 7, 8, 9 is 2 μM.
(§3) LBH was used as quench inhibitor to stop the reaction at the end point.
IC50 values are in micromolar.

HDAC9 = HDAC9 (Homo sapiens (Human), UniProt Q9UKV0); assay: Caliper HDAC enzymatic endpoint assay, HDAC9; type: biochemical; details: Table 2C; read-out: HDAC9 IC50 after 0 hr preincubation
HDAC9, sequence (Q9UKV0 whole entry): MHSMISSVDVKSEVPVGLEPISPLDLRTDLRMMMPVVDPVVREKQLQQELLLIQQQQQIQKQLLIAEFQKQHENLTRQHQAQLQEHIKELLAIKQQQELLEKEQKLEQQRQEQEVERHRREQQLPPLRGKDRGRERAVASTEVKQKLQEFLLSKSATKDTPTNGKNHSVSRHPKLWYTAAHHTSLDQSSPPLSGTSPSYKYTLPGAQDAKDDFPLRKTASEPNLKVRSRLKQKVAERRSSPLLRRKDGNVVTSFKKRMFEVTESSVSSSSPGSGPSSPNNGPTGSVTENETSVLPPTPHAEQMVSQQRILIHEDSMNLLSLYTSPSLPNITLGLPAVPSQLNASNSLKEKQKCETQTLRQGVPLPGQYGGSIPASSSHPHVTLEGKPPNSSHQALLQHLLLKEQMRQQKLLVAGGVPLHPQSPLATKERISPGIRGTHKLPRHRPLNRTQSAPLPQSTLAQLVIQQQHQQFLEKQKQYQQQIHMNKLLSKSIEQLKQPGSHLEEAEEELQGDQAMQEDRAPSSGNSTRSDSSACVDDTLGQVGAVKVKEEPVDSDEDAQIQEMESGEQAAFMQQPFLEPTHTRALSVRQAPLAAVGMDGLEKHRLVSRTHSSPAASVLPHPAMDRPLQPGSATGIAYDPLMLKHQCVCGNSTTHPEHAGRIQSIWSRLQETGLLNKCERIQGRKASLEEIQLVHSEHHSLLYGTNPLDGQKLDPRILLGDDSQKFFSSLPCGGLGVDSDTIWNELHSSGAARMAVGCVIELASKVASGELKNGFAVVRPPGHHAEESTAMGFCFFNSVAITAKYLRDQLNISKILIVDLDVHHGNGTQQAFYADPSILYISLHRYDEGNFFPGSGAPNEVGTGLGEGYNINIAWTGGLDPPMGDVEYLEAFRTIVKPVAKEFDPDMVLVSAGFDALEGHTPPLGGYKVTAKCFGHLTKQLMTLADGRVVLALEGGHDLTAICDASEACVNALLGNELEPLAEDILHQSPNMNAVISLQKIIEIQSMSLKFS
Description: as §1, §2, §3
IC50 values are in micromolar.

dopaminergic signaling = assay: Amphetamine-induced hyperactivity (AIH); type: in vivo; details: mice, 10 mg/kg once daily, data 18-24 h after the 7th dose
Description: Compounds of the invention were evaluated for their ability to influence dopaminerigic signaling according to the following procedure. Mice were dosed once daily with 10 mg/kg of compound 1. Data collected 18-24 h after the 7th dose. Amphetamine-induced hyperactivity (AIH) was examined in eight identical open-field chambers (16.5″×16″×12″; AccuScan Instruments, Columbus, Ohio). Activity was detected by infrared beam breaks and recorded automatically by VersaMax software (AccuScan). Daily sessions were automatically binned in 5 minute intervals (VersaDat; AccuSacn) for statistical analysis. AIH was run over three consecutive days as follows:
Day 1: Habituation: Mice were placed into the open-field for 20 minutes and then removed for a saline injection. Mice were placed back into the open-field for an additional 30 minutes, at which point the mice were returned to their home cage.
Day 2: Baseline Motor Activity: This phase was run identically to Day 1, with the exception that the second day lasted for one hour (20 minutes pre-injection; 40 minutes post-injection).
Day 3: Amphetamine Challenge: Mice were placed in the open-field. After 20 minutes, mice were removed and challenged with amphetamine, and placed back in the open-field for 80 minutes.
**Note: All HDAC inhibitor treatments occurred 18-25 hours prior to behavioral testing. […]

INS-1E cells [1] = assay: ER stress / UPR markers by qPCR and immunoblotting; type: cell-based, rat; details: 10 μM, GLT
Description: INS-1E cells (one million/well) were seeded in 6-well plates in 2 mL complete medium. After two days, medium was removed and cells were exposed to 2 mL medium/well with the indicated concentrations of palmitate, glucose, HDAC inhibitors and/or vehicle. RNA was purified (Qiagen) and cDNA synthesis performed done according to manufacturers' guidelines (Applied Biosystems) and real-time PCR performed using the SYBR green method (Applied Biosystems). Each cDNA sample in triplicate was subjected to two individual PCR amplifications either for the gene of interest or the reference gene β-actin. See table below for primer sequences. INS-1E cells (one million/well) were seeded in 6-well plates in 2 mL complete medium. After two days, medium was removed and cells were exposed to 2 mL medium/well with the indicated concentrations of palmitate, glucose, test compounds and/or vehicle. Cells were lysed using Passive Lysis Buffer (Promega) containing protease inhibitors (Roche). Lysates were adjusted for protein concentration (Bradford) and protein separated by SDS-PAGE and transferred to PVDF membranes. Blots were developed using a chemiluminescence detection system (SuperSignal, Thermo Fisher Scientific), and light emission was captured using an Imaging Station 4000MM (Carestream). […] Gene expressions (vehicle=open bars, compound 1=light grey bars, GLT=black bars, GLT and compound 1=dark grey bars) were analyzed by qPCR (FIGS. 14A, 14B, 14D, 14E, and 14F) and protein levels (FIGS. 14C and 14G) (24 h) by immunoblotting. Representative blots are shown. Data are presented as fold to CTRL+SEM n=3-4, ns=not significant, *p<0.05, **p<0.01, ***p<0.001 vs unexposed cells; #p<0.05, ##p<0.01, ###p<0.001 vs. GLT treated cells, ANOVA with Tukey corrected test.

INS-1E cells [2] = assay: ROS formation (CM-H2DCFDA probe); type: cell-based, rat; details: 10 μM, GLT, 48 hrs
Description: INS-1E cells (50,000 cells/well) were seeded in 96-well plates in 100 uL complete medium. Two days after incubation, medium was removed and cells exposed to 100 uL medium/well with the indicated concentrations of palmitate, glucose, test compounds and/or vehicle. After 24 hours, cells were aspirated and incubated for 45 min in phenol […] RPMI (Invitrogen) containing 10 μM CM-H2DCFDA probe (Molecular Probes). Wells were subsequently washed twice with phenol red-free RMPI, incubated for 3 min with Hoechst 33342 (10 ug/mL) in phenol red-free media, followed by a final washing step. Fluorescence was captured by an IX Micro automated fluorescence microscope (Molecular Devices) and quantification of ROS per cell was analyzed using MetaXpress software (Molecular Devices). Each condition was assayed in five biological replicates. Glucolipotoxicity causes oxidative stress in β cells via increased ROS formation from mitochondria. […] ROS formation per cell (48 hrs) was measured using the CM-H2DCFDA probe and Hoechst staining. Data are presented as fold to CTRL+SEM n=3-4, ns=not significant, **p<0.01, ***p<0.001 vs unexposed cells; #p<0.05, ##p<0.01, vs. GLT treated cells, ANOVA with Tukey corrected test.

HDAC2, sequence (Q92769 whole entry): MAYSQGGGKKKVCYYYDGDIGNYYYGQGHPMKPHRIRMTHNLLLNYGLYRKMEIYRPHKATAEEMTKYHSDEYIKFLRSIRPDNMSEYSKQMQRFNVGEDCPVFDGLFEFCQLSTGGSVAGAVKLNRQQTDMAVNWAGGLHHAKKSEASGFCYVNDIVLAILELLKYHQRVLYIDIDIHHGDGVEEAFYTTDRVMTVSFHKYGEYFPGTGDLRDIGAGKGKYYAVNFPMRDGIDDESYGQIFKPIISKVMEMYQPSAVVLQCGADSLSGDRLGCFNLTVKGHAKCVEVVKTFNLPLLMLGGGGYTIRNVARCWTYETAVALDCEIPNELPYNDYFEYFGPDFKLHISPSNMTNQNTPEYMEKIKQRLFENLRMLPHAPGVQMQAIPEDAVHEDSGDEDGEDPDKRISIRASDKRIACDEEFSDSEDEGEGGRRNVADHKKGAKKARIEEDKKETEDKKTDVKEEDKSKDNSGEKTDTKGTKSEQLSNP
HDAC5, sequence (Q9UQL6 whole entry): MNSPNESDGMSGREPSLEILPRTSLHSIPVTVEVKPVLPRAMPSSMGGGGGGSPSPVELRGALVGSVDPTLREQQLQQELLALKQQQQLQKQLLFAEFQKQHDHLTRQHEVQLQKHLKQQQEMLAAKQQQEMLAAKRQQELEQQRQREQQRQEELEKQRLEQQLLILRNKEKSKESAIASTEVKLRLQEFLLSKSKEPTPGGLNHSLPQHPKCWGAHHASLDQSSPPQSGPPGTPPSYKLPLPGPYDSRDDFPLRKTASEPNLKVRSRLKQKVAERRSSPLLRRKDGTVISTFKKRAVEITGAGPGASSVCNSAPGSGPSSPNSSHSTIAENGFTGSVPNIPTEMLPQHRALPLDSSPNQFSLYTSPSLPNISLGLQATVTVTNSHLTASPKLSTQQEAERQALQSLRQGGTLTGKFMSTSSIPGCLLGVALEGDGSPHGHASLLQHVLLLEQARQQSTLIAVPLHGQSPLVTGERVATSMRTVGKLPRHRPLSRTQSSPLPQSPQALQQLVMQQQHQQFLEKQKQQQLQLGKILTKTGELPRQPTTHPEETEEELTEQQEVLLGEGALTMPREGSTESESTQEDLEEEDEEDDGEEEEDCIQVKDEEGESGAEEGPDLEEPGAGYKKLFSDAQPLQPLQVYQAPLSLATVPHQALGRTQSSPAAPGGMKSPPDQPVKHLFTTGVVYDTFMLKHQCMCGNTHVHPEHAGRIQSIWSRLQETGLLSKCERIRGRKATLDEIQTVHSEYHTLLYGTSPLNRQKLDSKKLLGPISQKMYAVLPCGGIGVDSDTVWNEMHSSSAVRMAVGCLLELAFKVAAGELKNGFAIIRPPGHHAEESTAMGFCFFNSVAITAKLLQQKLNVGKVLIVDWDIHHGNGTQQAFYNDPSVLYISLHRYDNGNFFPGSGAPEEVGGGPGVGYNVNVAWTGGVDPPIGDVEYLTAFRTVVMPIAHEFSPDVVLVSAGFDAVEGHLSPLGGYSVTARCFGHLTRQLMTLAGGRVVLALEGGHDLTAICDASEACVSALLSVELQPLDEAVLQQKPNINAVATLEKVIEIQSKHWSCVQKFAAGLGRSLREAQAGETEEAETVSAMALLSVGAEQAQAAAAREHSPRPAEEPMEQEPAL

`CC(=O)Nc1ccc(C(=O)Nc2ccc(F)cc2N)cc1` [Compound 1, 4-acetamido-N-(2-amino-4-fluorophenyl)benzamide] was tested, and the Tm shift (HDAC2) was 2.7 °C, the IC50 (HDAC5) was > 33 µM and the IC50 (HDAC9) was > 33 µM. For the same compound, the “effect on amphetamine-induced hyperactivity” value (dopaminergic signaling) was “potentiates”, the “Atf4 transcription factor induction” value (INS-1E cells [1]) was “did not affect Atf4 transcription factor induction” and the “levels of the ER chaperone Bip mRNA” value (INS-1E cells [1]) was “did not change”. The “splicing of Xbp1 to Xbp1s” value (INS-1E cells [1]) was “did not affect splicing”, the “ATF4-mediated induction of Chop” value (INS-1E cells [1]; 9 hrs) was “decreased” and the “ATF4-mediated induction of Atf3” value (INS-1E cells [1]; 24 hrs) was “decreased”. The “CHOP mRNA and protein induction” value (INS-1E cells [1]; 24 hrs) was “completely reversed”, the “phosphorylation of JNK (pJNK/tJNK)” value (INS-1E cells [1]; 24 hrs) was “inhibited phosphorylation of JNK” and the “glucolipotoxicity-induced ROS formation” value (INS-1E cells [2]) was “reduces glucolipotoxicity-induced ROS formation”.
